Measured values: patent US12264146B2, “Rho kinase inhibitor, method for preparing same and uses thereof” (BEIJING INCREASE INNOVATIVE DRUG CO., LTD., priority 2018, dated 2025)

What was measured:
[1] = system: subarachnoid hemorrhage in rats; assay: Rat subarachnoid hemorrhage (SAH) model by intravascular puncture, Sugawara bleeding score; format: in vivo; set-up: dose or concentration left out as unconfirmed; conditions: tail vein injection, 2 administrations 4 h apart, scored 24 h after first administration (Sugawara)
Protocol: Rat subarachnoid hemorrhage (SAH) model was built by intravascular puncture. After being weighed, the rats were anesthetized with sodium pentobarbital (50 mg/kg) or chloral hydrate (300 mg/kg) by intraperitoneal injection, then fixed on their back and maintained the animal's body temperature at about 37° C. The rats' neck skin was shaved for surgery, a median incision was made on the neck, and muscle and fascia were separated along the inner edge of stemocleidomastoid muscle to expose the main and bifurcation of right common carotid artery, and expose the external and internal carotid arteries.
The bifurcation of internal carotid artery was gently clamped with ophthalmic forceps, the bifurcation of the internal carotid artery and the external carotid artery was pierced with a 6-gauge syringe needle, the ophthalmic forceps holding the bifurcation of internal carotid artery was slightly loosen, and No. 3 fishing thread was used to perform a puncture at the bleeding point, the ophthalmic forceps on the internal carotid artery was loosen, and the fishing thread was inserted into skull. […] After staying for 15 seconds, the thread for puncture was completely removed, and the skin was sutured after compression to stop the bleeding. 1.6 million units of penicillin potassium (400,000 units/ml, 0.2 ml/rat) was intramuscularly injected to avoid wound infection. For the sham operation group, the thread for puncture was removed when resistance was felt without piercing the bifurcation of the anterior cerebral artery and the middle cerebral artery, while the remaining operation steps were the same as the model group. After the operation, the rats were transferred to a thermal insulation blanket, then transferred to a squirrel cage when they were basically awake, and kept normally.
In this test experimental, 32 groups were set, i.e., Groups 1 to 32, in which Group 1 was a normal control group (healthy rats), Group 2 was a sham operation control group (not modeling by puncture), Group 3 was a model control group (modeling by puncture, administrated with normal saline), Group 4 was a positive control group (modeling by puncture, administrated with fasudil hydrochloride injection), and Groups 5 to 32 were test groups of the compounds of the present application (modeling by puncture, respectively administrated with the compounds of the present application); and there were 8 animals (purchased from SPF (Beijing) Biotechnology Co., Ltd., the certificate number was SYXK (Beijing) 2016-0002) in each group, half of them were female and half of them were male. The animals were subjected to fasting for 12 to 18 hours without prohibition of drinking water before modeling. […] The rats were euthanized 24 h after the first administration, and the brains were taken. According to Sugawara's method (Reference: Sugawara T, Ayer R, Jadhav V, et al. A new grading system evaluating bleeding scale in filament perforation subarachnoid hemorrhage rat model. J Neurosci Methods. 2008, 167(2):327-34), the subarachnoid hemorrhage amounts were scored, and the scoring results were as follows: […]

[2] = Toxicity test on endothelial cells EA.hy926, CCK-8 cell viability; format: cell-based; conditions: human, 1000~0.32 μmol/L, 5-fold dilution, read-out: IC50 of Test compound (cytotoxicity on EA.hy926 cells)
Protocol: In this test example, 31 groups, i.e., Groups 1 to 31, were set, in which Group 1 was a blank control group, Group 2 was a normal control group, Group 3 was a positive control group, and Groups 4 to 31 were test groups of the compounds of the present application. The specific test operation comprised: 100 μL of endothelial cells EA.hy926 (purchased from Suzhou Beina Chuanglian Biotechnology Co., Ltd.) with a density of 5×10^4 was added to each well of a 96-well plate, and transferred to an incubator at 37° C. with 5% CO2 and saturated humidity conditions and cultured for 24 hours, 100 μL of 2× the test compound solution prepared and diluted with DMEM medium containing 10% fetal bovine serum was added, in which the test compound added in the positive control group was Fasudil hydrochloride (purchased from Beijing Sihuan Pharmaceutical Co., Ltd., SFDA approval number H20173349) solution with different concentrations, an equal volume of DMEM medium was added in the blank control group, an equal volume of PBS buffer was added in the normal control group, and a duplicate well was set for each concentration point. After adding the test compound, the culture was continued in the incubator for 24 hours, then 20 μL of CCK-8 detection solution (purchased from Beijing Solarbio Science & Technology Co., Ltd., Cat. No. CA1210) was added to each well, interacted at 37° C. for 2.5 hours, shaken and mixed well, and then the absorbance value at 450 nm was detected.
OD values were detected, and the cell viability values of test groups of different concentrations were calculated according to the cell viability calculation formula as follows: Cell viability=(Atest group−Ablank control)/(Anormal control−Ablank control)*100%
wherein A represented absorbance value at 450 nm.
Prism6.0 was used to obtain the inhibitor concentration-viability curve and to calculate the IC50 of the test compound, the correlation coefficient R^2>0.99; the inhibitor concentration-viability curves of Fasudil hydrochloride, R-YK1601, R-YK1603, R-YK1606, R-YK1607, R-YK1610 were shown in FIGS. 1 to 6, in which the abscissa was the logarithm on base 10 of the concentration of the test compound, and the ordinate was the cell activity (i.e., cell viability).

In the case of `CCc1cnc(O)c2cccc(S(=O)(=O)N3CCCNCC3C)c12` (racemic) [Compound YK1607, 4-ethyl-5-((2-methyl-1,4-diazacycloheptan-1-yl)sulfonyl)isoquinolin-1-ol], the “Cerebral hemorrhage volume score (x ± s)” value [1] is reported as 13.09 ± 2.09 and the IC50 at 24 h [2] is reported as 139 µM.

With `CC1CNCCCN1S(=O)(=O)c1cccc2c(O)ncc(F)c12` (racemic) [Compound YK1604, 4-fluoro-5-((2-methyl-1,4-diazacycloheptan-1-yl)sulfonyl)isoquinolin-1-ol] the “Cerebral hemorrhage volume score (x ± s)” value [1] was 13.08 ± 1.97 and the IC50 at 24 h [2] was 130 µM.

In the case of `COc1nccc2c(S(=O)(=O)N3CCCNCC3CCC(C)C)cccc12` (racemic) [Compound YK1612, 5-((2-isopentyl-1,4-diazacycloheptan-1-yl)sulfonyl)-1-methoxyisoquinoline], the “Cerebral hemorrhage volume score (x ± s)” value [1] is reported as 14.05 ± 1.96 and the IC50 at 24 h [2] is reported as 89.6 µM.

With `CC(C)C1CNCCCN1S(=O)(=O)c1cccc2c(O)nccc12` (racemic) [Compound YK1609, 5-((2-isopropyl-1,4-diazacycloheptan-1-yl)sulfonyl)isoquinolin-1-ol] the “Cerebral hemorrhage volume score (x ± s)” value [1] was 13.27 ± 1.96 and the IC50 at 24 h [2] was 228 µM.

In the case of `CCC1CNCCCN1S(=O)(=O)c1cccc2c(OC)nccc12` (racemic) [Compound YK1610, 5-((2-ethyl-1,4-diazacycloheptan-1-yl)sulfonyl)-1-methoxyisoquinoline], the “Cerebral hemorrhage volume score (x ± s)” value [1] is reported as 13.83 ± 2.01 and the IC50 at 24 h [2] is reported as 98.8 µM.

With `COc1ncc(F)c2c(S(=O)(=O)N3CCCNCC3C)cccc12` (racemic) [Compound YK1605, 4-fluoro-1-methoxy-5-((2-methyl-1,4-diazacycloheptan-1-yl)sulfonyl)isoquinoline] the “Cerebral hemorrhage volume score (x ± s)” value [1] was 13.95 ± 2.02 and the IC50 at 24 h [2] was 103 µM.

In the case of `O=S(=O)(c1cccc2cnccc12)N1CCCNCC1C1CC1` (racemic) [Compound YK1608, 5-((2-cyclopropyl-1,4-diazacycloheptan-1-yl)sulfonyl)isoquinoline], the “Cerebral hemorrhage volume score (x ± s)” value [1] is reported as 13.98 ± 2.01 and the IC50 at 24 h [2] is reported as 165 µM.

For `COc1ncc(C2CC2)c2c(S(=O)(=O)N3CCCNCC3C)cccc12` (racemic) [Compound YK1600-2, 4-cyclopropyl-1-methoxy-5-((2-methyl-1,4-diazacycloheptan-1-yl)sulfonyl)isoquinoline], the “Cerebral hemorrhage volume score (x ± s)” value [1] was 14.49 ± 2.62 and the IC50 at 24 h [2] was 85.1 µM.

For `COc1nccc2c(S(=O)(=O)N3CCCNCC3C)cccc12` (racemic) [Compound YK1602, 1-methoxy-5-((2-methyl-1,4-diazacycloheptan-1-yl)sulfonyl)isoquinoline], the “Cerebral hemorrhage volume score (x ± s)” value [1] was 12.92 ± 2.03 and the IC50 at 24 h [2] was 333 µM.

For `CCCCC1CNCCCN1S(=O)(=O)c1cccc2c(O)nccc12` (racemic) [Compound YK1611, 5-((2-butyl-1,4-diazacycloheptan-1-yl)sulfonyl)isoquinolin-1-ol], the “Cerebral hemorrhage volume score (x ± s)” value [1] was 13.39 ± 2.03 and the IC50 at 24 h [2] was 184 µM.

For `CC1CNCCCN1S(=O)(=O)c1cccc2c(O)ncc(Cl)c12` (racemic) [Compound YK1606, 4-chloro-5-((2-methyl-1,4-diazacycloheptan-1-yl)sulfonyl)isoquinolin-1-ol], the “Cerebral hemorrhage volume score (x ± s)” value [1] was 13.71 ± 2.03 and the IC50 at 24 h [2] was 98 µM.

For `CC1CNCCCN1S(=O)(=O)c1cccc2c(O)nccc12` (racemic) [Compound YK1601, 5-((2-methyl-1,4-diazacycloheptan-1-yl)sulfonyl)isoquinolin-1-ol], the “Cerebral hemorrhage volume score (x ± s)” value [1] was 12.75 ± 2.01 and the IC50 at 24 h [2] was 496 µM.

In the case of `CC1CNCCCN1S(=O)(=O)c1cccc2c(O)ncc(C3CC3)c12` (racemic) [Compound YK1600-1, 4-cyclopropyl-5-((2-methyl-1,4-diazacycloheptan-1-yl)sulfonyl)isoquinolin-1-ol], the “Cerebral hemorrhage volume score (x ± s)” value [1] is reported as 14.36 ± 2.53 and the IC50 at 24 h [2] is reported as 97.8 µM.

For `CC1CNCCCN1S(=O)(=O)c1cccc2cnccc12` (racemic) [Compound YK1603, 5-((2-methyl-1,4-diazacycloheptan-1-yl)sulfonyl)isoquinoline], the “Cerebral hemorrhage volume score (x ± s)” value [1] was 12.96 ± 1.99 and the IC50 at 24 h [2] was 176 µM.
